From patent US20240209028A1, “CNP COMPOUNDS” (priority 2022, published 2024) come the findings set out here.

Starred links: 1 amine or outer side, 2 acyl side, 3 side chain; linkers in the order of their positions; H or OH if unused. Positions of bridges follow the written chain, without caps; N, C: chain ends. Residues, ends and D or L forms follow the SMILES beside them. *: point of attachment. C18 diacid = O=C(O)CCCCCCCCCCCCCCCCC(=O)*; γGlu = O=C(O)[C@H](CCC(=O)[*:2])N[*:1]; AEEA = NCCOCCOCC(=O)O

The series can be described thus: PK of CNP compounds after i.v. and s.c. administration to rats. The following applies: male, Sprague Dawley, in vivo, iv, rat, i.v., about 100 nmol/kg; for clearance: read-out: Cl (L/hr/kg), i.v. administration (converted); for half-life: read-out: T½ (hr), i.v. administration (converted). The protocol: In order to assess the i.v. and s.c. PK/PD profile of CNP compounds of the present invention, formulations of CNP compounds were administered to rats, blood samples taken and exposure and cGMP response measured.
Quantitative plasma analysis of CNP-compounds: Plasma concentrations of CNP compounds were assayed by plasma protein precipitation and analysed by turboflow liquid chromatography mass spectrometry (TF-LC-MS). Calibrators were prepared by spiking either blank rat or minipig plasma with the relevant CNP compound in the range from 0.5 to 2000 nM. Calibrators, plasma blanks or study samples were prepared for TF-LC-MS by protein precipitation by adding three or four volumes of either ethanol or methanol containing 20 nM of internal standard to one volume of sample. For some compounds, formic acid was added to the precipitation reagent (the final concentration was 1% v/v). After the addition of the precipitation reagent, the mixture was centrifuged at 6200 rpm at 4° C. for 30 minutes. After centrifugation, one volume of supernatant was mixed with two volumes of water (with 1% v/v formic acid). The mixture was analysed by TF-LC-MS using a Cyclone turboflow column (0.5×50 mm, ThermoFisher Scientific) and either a XBridge Protein BEH C4 3.5 μm 300 Åor a XBridge Protein BEH C18 3.5 μm 130 Åanalytical column (both were 50×2.1 mm and obtained from Waters). […] The mass spectrometer was operated in positive ionisation mode. A TSQ Altis mass spectrometer (ThermoFisher Scientific) was used as detector in selected reaction monitoring mode (specific transition were optimised for each CNP compound). Linear calibration curves (weighed 1/×2) were used for calculating the concentration in the plasma samples. Quality control samples were included. The deviation between nominal and calculated concentration in the calibrators and quality control samples were below 15%.
Animals and dosing: Groups of 4-6 rats (male, Sprague Dawley, 350 g at arrival, Janvier, France) per compound and route of administration were dosed with a CNP compound formulated either in A) 8 mM sodium phosphate, 250 mM glycerol, 0.007% polysorbate 20, pH 7.4 or B) 5 mM sodium acetate, 250 mM glycerol, 0.007% polysorbate 20, pH 4.0 depending on the respective compound. S.c. dose was 300 nmol/kg, at a concentration of […] resulting in a dosing volume of 0.3 mL/kg, whereas i.v. dose was 100 nmol/kg, at a concentration of […] resulting in a dosing volume of 1 mL/kg.
Sampling: Sublingual blood samples of 250 uL were collected from unanaesthetised rats in EDTA-coated vials (Microvette 600K3E ref #15.1673.100 Sarstedt) at baseline (-1 h before dosing) as well as 5 min (only i.v. dosed groups), 2 h, 6 h, 24 h, 48 h and 72 h (only for exposure analysis) post-dosing. The blood samples were quickly stored on ice and centrifuged (4° C., 8000 RPM, 5 min) within 10 min of collection. Plasma samples of 50 μL were transferred to each micronic tube for either exposure or cGMP analysis, kept on dry ice and stored in a freezer (−20° C.). Rats had access to food (Altromin) and tap water ad libitum.
Analysis: PK parameters were calculated by non-compartment analysis (NCA) using software Phoenix WinNonlin (ver. 8.1 or later, Certara) for each animal. Clearance (Cl) was calculated as: Dose/AUCinf (linear up, log down). […] Bioavailability was calculated as dose normalized AUC's: (AUC(sc)/Dose(sc))/(AUC(iv)/Dose(iv)). Values in the table are means from individual animals (n=4-6 individual animals). The subsequent plots for cGMP plasma concentration versus time are (Y-axis) mean cGMP concentration (n=4-6 individual animals) after IV dosing and (X-axis) nominal plasma sampling time.
Plasma cGMP are reported as the mean.

Regarding `CC[C@H](C)[C@@H]1NC(=O)[C@H](CCCNC(=N)N)NC(=O)[C@H](CC(=O)O)NC(=O)[C@H](CC(C)C)NC(=O)[C@@H]2CCCN2C(=O)[C@H](CC(C)C)NC(=O)CNC(=O)[C@H](Cc2ccccc2)NC(=O)[C@@H](NC(=O)CNC(=O)[C@H](CO)NC(=O)[C@H](CO)NC(=O)[C@@H](NC(=O)CNC(=O)[C@@H](NC(=O)[C@H](CCCCN)NC(=O)[C@H](CCC(N)=O)NC(=O)[C@H](C)NC(=O)CNC(=O)[C@H](Cc2c[nH]cn2)NC(=O)[C@H](Cc2ccc(O)cc2)NC(=O)[C@H](CCCCN)NC(=O)[C@H](CCCNC(=N)N)NC(=O)[C@H](C)NC(=O)COCCOCCNC(=O)COCCOCCNC(=O)CC[C@H](NC(=O)CC[C@H](NC(=O)CCCCCCCCCCCCCCCCC(=O)O)C(=O)O)C(=O)O)[C@@H](C)O)C(C)C)CSSC[C@@H](C(=O)O)NC(=O)CNC(=O)[C@H](CC(C)C)NC(=O)CNC(=O)[C@H](CO)NC(=O)[C@H](CC(C)C)NC(=O)[C@H](CO)NC(=O)CNC1=O` [compound 1354] ({C18 diacid-γGlu-γGlu-AEEA-AEEA}-ARKYHGAQKTGVSSGCFGLPLDRIGSLSGLGC-OH; disulfide 16-32), the clearance was 0.00652 L/h/kg and the half-life is 7.56 h.
The like results for `CC[C@H](C)[C@@H]1NC(=O)[C@H](CCCNC(=N)N)NC(=O)[C@H](CC(=O)O)NC(=O)[C@H](CC(C)C)NC(=O)[C@@H]2CCCN2C(=O)[C@H](CC(C)C)NC(=O)CNC(=O)[C@H](Cc2ccccc2)NC(=O)[C@@H](NC(=O)CNC(=O)[C@H](CO)NC(=O)[C@H](CO)NC(=O)[C@H](CC(C)C)NC(=O)CNC(=O)[C@H](CCCCN)NC(=O)[C@H](CCCCN)NC(=O)[C@H](CCC(N)=O)NC(=O)[C@H](C)NC(=O)CNC(=O)[C@H](CCCCN)NC(=O)[C@H](Cc2ccc(O)cc2)NC(=O)COCCOCCNC(=O)COCCOCCNC(=O)COCCOCCNC(=O)CC[C@H](NC(=O)CC[C@H](NC(=O)CCCCCCCCCCCCCCCCC(=O)O)C(=O)O)C(=O)O)CSSC[C@@H](C(=O)O)NC(=O)CNC(=O)[C@H](CC(C)C)NC(=O)CNC(=O)[C@H](CO)NC(=O)[C@H](CC(C)C)NC(=O)[C@H](CO)NC(=O)CNC1=O` [compound 1356] ({C18 diacid-γGlu-γGlu-AEEA-AEEA-AEEA}-YKGAQKKGLSSGCFGLPLDRIGSLSGLGC-OH; disulfide 13-29; C-terminus assumed) were, in that order, 0.0141 L/h/kg and 3.47 h.
In the same order, the values of `CC[C@H](C)[C@@H]1NC(=O)[C@H](CCCNC(=N)N)NC(=O)[C@H](CC(=O)O)NC(=O)[C@H](CC(C)C)NC(=O)[C@@H]2CCCN2C(=O)[C@H](CC(C)C)NC(=O)CNC(=O)[C@H](Cc2ccccc2)NC(=O)[C@@H](NC(=O)CNC(=O)[C@H](CCCCN)NC(=O)[C@H](CO)NC(=O)[C@H](CC(C)C)NC(=O)CNC(=O)[C@H](CCCCN)NC(=O)[C@H](CCCCN)NC(=O)[C@H](CCC(N)=O)NC(=O)[C@H](C)NC(=O)CNC(=O)[C@H](CCC(=O)O)NC(=O)[C@H](Cc2ccc(O)cc2)NC(=O)COCCOCCNC(=O)COCCOCCNC(=O)COCCOCCNC(=O)COCCOCCNC(=O)CC[C@H](NC(=O)CCCCCCCCCCCCCCCCC(=O)O)C(=O)O)CSSC[C@@H](C(=O)O)NC(=O)CNC(=O)[C@H](CC(C)C)NC(=O)CNC(=O)[C@H](CO)NC(=O)[C@H](CC(C)C)NC(=O)[C@H](CO)NC(=O)CNC1=O` [compound 1375] ({C18 diacid-γGlu-AEEA-AEEA-AEEA-AEEA}-YEGAQKKGLSKGCFGLPLDRIGSLSGLGC-OH; disulfide 13-29; C-terminus assumed) are 0.0057 L/h/kg and 9.66 h.
Take `CC[C@H](C)[C@@H]1NC(=O)[C@H](CCCNC(=N)N)NC(=O)[C@H](CC(=O)O)NC(=O)[C@H](CC(C)C)NC(=O)[C@@H]2CCCN2C(=O)[C@H](CC(C)C)NC(=O)CNC(=O)[C@H](Cc2ccccc2)NC(=O)[C@@H](NC(=O)CNC(=O)[C@H](CCCCN)NC(=O)[C@H](CO)NC(=O)CNC(=O)CNC(=O)[C@H](CCCCN)NC(=O)[C@H](CCCCN)NC(=O)[C@H](CCC(N)=O)NC(=O)[C@H](C)NC(=O)CNC(=O)[C@H](CCC(=O)O)NC(=O)[C@H](Cc2ccc(O)cc2)NC(=O)COCCOCCNC(=O)COCCOCCNC(=O)CC[C@H](NC(=O)CCCCCCCCCCCCCCCCC(=O)O)C(=O)O)CSSC[C@@H](C(=O)O)NC(=O)CNC(=O)[C@H](CC(C)C)NC(=O)CNC(=O)[C@H](CO)NC(=O)[C@H](CC(C)C)NC(=O)[C@H](CO)NC(=O)CNC1=O` [compound 1377] ({C18 diacid-γGlu-AEEA-AEEA}-YEGAQKKGGSKGCFGLPLDRIGSLSGLGC-OH; disulfide 13-29): the clearance was 0.00747 L/h/kg and the half-life is 6.29 h.
As to `CC[C@H](C)[C@@H]1NC(=O)[C@H](CCCNC(=N)N)NC(=O)[C@H](CC(=O)O)NC(=O)[C@H](CC(C)C)NC(=O)[C@@H]2CCCN2C(=O)[C@H](CC(C)C)NC(=O)CNC(=O)[C@H](Cc2ccccc2)NC(=O)[C@@H](NC(=O)CNC(=O)[C@H](CO)NC(=O)[C@H](CO)NC(=O)[C@H](CC(C)C)NC(=O)CNC(=O)[C@H](CCCCN)NC(=O)[C@H](CCCCN)NC(=O)[C@H](CCC(N)=O)NC(=O)[C@H](C)NC(=O)CNC(=O)[C@H](CCC(=O)O)NC(=O)[C@H](Cc2ccc(O)cc2)NC(=O)[C@H](CO)NC(=O)[C@H](CCCNC(=N)N)NC(=O)[C@H](C)NC(=O)[C@H](CCC(N)=O)NC(=O)[C@@H]2CCCN2C(=O)[C@H](Cc2c[nH]cn2)NC(=O)[C@H](CCC(=O)O)NC(=O)[C@H](CCC(N)=O)NC(=O)COCCOCCNC(=O)COCCOCCNC(=O)CC[C@H](NC(=O)CCCCCCCCCCCCCCCCC(=O)O)C(=O)O)CSSC[C@@H](C(=O)O)NC(=O)CNC(=O)[C@H](CC(C)C)NC(=O)CNC(=O)[C@H](CO)NC(=O)[C@H](CC(C)C)NC(=O)[C@H](CO)NC(=O)CNC1=O` [compound 1379] ({C18 diacid-γGlu-AEEA-AEEA}-QEHPQARSYEGAQKKGLSSGCFGLPLDRIGSLSGLGC-OH; disulfide 21-37; C-terminus assumed), the clearance was 0.0051 L/h/kg and the half-life is 9.8 h.
As for `CC[C@H](C)[C@@H]1NC(=O)[C@H](CCCNC(=N)N)NC(=O)[C@H](CC(=O)O)NC(=O)[C@H](CC(C)C)NC(=O)[C@@H]2CCCN2C(=O)[C@H](CC(C)C)NC(=O)CNC(=O)[C@H](Cc2ccccc2)NC(=O)[C@@H](NC(=O)CNC(=O)[C@H](CO)NC(=O)[C@H](CO)NC(=O)[C@H](CC(C)C)NC(=O)CNC(=O)[C@H](CCCCN)NC(=O)[C@H](CCCCN)NC(=O)[C@H](CCC(N)=O)NC(=O)[C@H](C)NC(=O)CNC(=O)[C@H](CCCCN)NC(=O)[C@H](Cc2ccc(O)cc2)NC(=O)[C@H](CCCCN)NC(=O)[C@H](CCCNC(=N)N)NC(=O)[C@H](C)NC(=O)CC[C@H](NC(=O)CC[C@H](NC(=O)CC[C@H](NC(=O)CC[C@H](NC(=O)CCCCCCCCCCCCCCCCC(=O)O)C(=O)O)C(=O)O)C(=O)O)C(=O)O)CSSC[C@@H](C(=O)O)NC(=O)CNC(=O)[C@H](CC(C)C)NC(=O)CNC(=O)[C@H](CO)NC(=O)[C@H](CC(C)C)NC(=O)[C@H](CO)NC(=O)CNC1=O` [compound 1386] ({C18 diacid-γGlu-γGlu-γGlu-γGlu}-ARKYKGAQKKGLSSGCFGLPLDRIGSLSGLGC-OH; disulfide 16-32), the clearance was 0.00605 L/h/kg and the half-life is 8.16 h.
